# Patent US12507721B2, “Ready-to-use parenteral nutrition formulation” (BAXTER INTERNATIONAL INC., priority 2021, dated 2025)
# Tests used:
# Type in all cases: physicochemical
# [1] = Vitamin B12 stability in dedicated formulations (Batches 1 to 4); details: aqueous formulation, optimized conditions (oxygen content, pH, sterilization method)
# Experimental: Table 16 provides for the various batches which were prepared for testing the stability of vitamin B12 in each setting.
# For Batches 1 to 3, concentrated emulsions (40%) were diluted with a factor of 8. The vitamin bulk was used to dilute the emulsion from 40% to 5%. The pH was adjusted at 5.9 with a citrate buffer for Batch 1 and a phosphate buffer for Batch 2. An adjustment to pH 6.5 was performed for Batch 3 with HCl. The final volume was provided by adding Milli-Q water. In case of Batches 2 and 3, EDTA and PVP K17 were added before filling up to the final volume. The emulsions were filtered with a 4.5 μm filter before filling. Flushing of the solutions using N2 was performed before starting the filling of each batch. The Batches were manufactured under exclusion of light and oxygen. The dissolved oxygen was measured at the beginning of the filling to ensure it remains <1.0 ppm. The headspace volume was set as small as possible (≤10 mL) and the filling volume limits was 100 mL per monobag, ±2 mL. To avoid any risk of vitamin degradation, an aluminum overpouch was used to protect each monobag. An oxygen absorber was placed between primary bag and overpouch. Seals were inspected before sterilization rack loading. Four samples per Batch were kept unsterilized for Batches 1 through 4. […]
# [2] = Stability of vitamin B12 during sterilization at different C0; details: Batch 3 (5% lipid emulsion); C0=120 min
# Experimental: Therefore, in a first step, exemplary glucose solutions and lipid emulsions each containing vitamin B12 were submitted to different amounts of C0 during the sterilization step to analyze the impact of C0 on the stability of vitamin B12. Several C0 values were targeted and a wide range, from 20 min to 120 min, was screened to understand the correlation between C0 and the degradation of vitamin B12 in different media. Bags of lipid emulsion were produced, wherein the 5% olive-based emulsion contained vitamin B12 (cyanocobalamin form) at a concentration of 1 dd in 25 mL and, in one case, EDTA in a concentration of 0.1% w/v of the final emulsion (see Table 6). […] The heat sensitivity of the vitamin was assessed through the analysis of the respective degradation profile. […]
# The solutions were analyzed unsterilized and sterilized for each cycle. […]
# Bags were then analyzed at the respective points in time to evaluate the impact on the degradation of vitamin B12. The quantitative determination of vitamin B12 in the form of cyano- and hydroxocobalamins was done by Ultra Performance Liquid Chromatography (UPLC), which separates components of a solution by partitioning of the analytes between a mobile liquid phase and a […] (reversed phase mode). […]
# [3] = Impact of pH on the stability of vitamin B12; details: 6 months at 40° C.
substance,measurement,setting,value
cobalamin [Batch B12],stability of vitamin B12 in Batch 4,[1],remains stable up to T7M40 °C
same,degradation of the total sum of vitamin B12,[2],about 35%
same,vitamin B12 (cyanocobalamin plus hydroxocobalamin) recovered,"[3]; Batch 1: 5% olive oil emulsion, pH 7.0, C0=40 min",53.8%
same,vitamin B12 (cyanocobalamin plus hydroxocobalamin) recovered,"[3]; Batch 2: 5% olive oil emulsion, pH 5.9, C0=80 min",138%
